Data published in patent publication US20250163056A1, “NONMUSCLE MYOSIN II INHIBITORS” (The University of Florida Research Foundation, Inc., priority 2018, published 2025).
Values after ≈ are worked out from the molar mass of the structure shown. Values joined by “and” are separate entries in the source; they are usually repeats but may differ in a detail not shown here. Equal values may be shown once. Read-outs that look alike come from different tables or passages of the source.

What was measured:
[1] = system: polydrug-associated memories; test: Polydrug-associated memory CPP (METH/NIC, METH/MOR); format: in vivo, mice; settings: Test 1 and Test 2, drugs on alternating days
Experimental: FIG. 6(A,B,C,D,E): Nonmuscle myosin II inhibition disrupts polydrug-associated memories when the drugs are administered on alternating days (A) Schematic of the experimental design. […] METH/NIC: Veh n=10; METH/NIC: Blebb n=10; METH/MOR: Veh n=19; METH/MOR: Blebb n=19; * p<0.05, ** p<0.01, *** p<0.001. Error bars represent±s.e.m.
The vast majority of individuals with substance use disorder are polydrug users. For example, most METH users also smoke. We recently made an unexpected discovery with direct relevance to polydrug use^76. When animals are treated with both METH and a drug that is impervious to Blebb on its own (nicotine or morphine), either concurrently or on alternating days, the nicotine and morphine memories become susceptible to immediate disruption by Blebb, akin to the effect on METH alone memories (FIG. 6). Thus, memories for previously impervious drugs of abuse become susceptible to NMII inhibition when METH associations are also formed. Importantly, this occurs when associative training is performed with METH and the other drug of abuse being administered simultaneously or separately, on different days. We are currently expanding our analysis to other commonly abused drugs, including other opioids, such as heroin, alcohol, cocaine and synthetic cathinones.

fear memory = test: Auditory fear memory after systemic NMII inhibition; format: in vivo; settings: IP administered
From the text: (§1) FIG. 3(A,B,C,D): Systemic NMII inhibition selectively targets the storage of (A) a METH-associated memory, (B) having no effect on an auditory fear memory. Similarly, spine density associated with a METH-associated memory (C), but not a fear memory (D), is reduced.
(§2) The potential for systemic NMII inhibition to selectively target METH-associated memories in the way that intra-AMY administration does was also investigated. […] IP administered Blebbistatin also disrupts reconsolidation of memories for cocaine, nicotine and mephedrone, a result with additional potential therapeutic relevance in treating relapse^75-76. In addition, the BLC spine density increase that accompanies a METH-associated memory is reversed by Blebbistatin (FIG. 3C), without altering the spine density increase associated with a fear memory (FIG. 3D)^65, 74.

Bovine cardiac myosin = Bovine cardiac myosin (Bos taurus (Bovine), UniProt Q9BE39); test: Cardiac muscle myosin II actin-activated ATPase assay (NADH-coupled); format: biochemical
Chain of Bovine cardiac myosin (Q9BE39 whole entry): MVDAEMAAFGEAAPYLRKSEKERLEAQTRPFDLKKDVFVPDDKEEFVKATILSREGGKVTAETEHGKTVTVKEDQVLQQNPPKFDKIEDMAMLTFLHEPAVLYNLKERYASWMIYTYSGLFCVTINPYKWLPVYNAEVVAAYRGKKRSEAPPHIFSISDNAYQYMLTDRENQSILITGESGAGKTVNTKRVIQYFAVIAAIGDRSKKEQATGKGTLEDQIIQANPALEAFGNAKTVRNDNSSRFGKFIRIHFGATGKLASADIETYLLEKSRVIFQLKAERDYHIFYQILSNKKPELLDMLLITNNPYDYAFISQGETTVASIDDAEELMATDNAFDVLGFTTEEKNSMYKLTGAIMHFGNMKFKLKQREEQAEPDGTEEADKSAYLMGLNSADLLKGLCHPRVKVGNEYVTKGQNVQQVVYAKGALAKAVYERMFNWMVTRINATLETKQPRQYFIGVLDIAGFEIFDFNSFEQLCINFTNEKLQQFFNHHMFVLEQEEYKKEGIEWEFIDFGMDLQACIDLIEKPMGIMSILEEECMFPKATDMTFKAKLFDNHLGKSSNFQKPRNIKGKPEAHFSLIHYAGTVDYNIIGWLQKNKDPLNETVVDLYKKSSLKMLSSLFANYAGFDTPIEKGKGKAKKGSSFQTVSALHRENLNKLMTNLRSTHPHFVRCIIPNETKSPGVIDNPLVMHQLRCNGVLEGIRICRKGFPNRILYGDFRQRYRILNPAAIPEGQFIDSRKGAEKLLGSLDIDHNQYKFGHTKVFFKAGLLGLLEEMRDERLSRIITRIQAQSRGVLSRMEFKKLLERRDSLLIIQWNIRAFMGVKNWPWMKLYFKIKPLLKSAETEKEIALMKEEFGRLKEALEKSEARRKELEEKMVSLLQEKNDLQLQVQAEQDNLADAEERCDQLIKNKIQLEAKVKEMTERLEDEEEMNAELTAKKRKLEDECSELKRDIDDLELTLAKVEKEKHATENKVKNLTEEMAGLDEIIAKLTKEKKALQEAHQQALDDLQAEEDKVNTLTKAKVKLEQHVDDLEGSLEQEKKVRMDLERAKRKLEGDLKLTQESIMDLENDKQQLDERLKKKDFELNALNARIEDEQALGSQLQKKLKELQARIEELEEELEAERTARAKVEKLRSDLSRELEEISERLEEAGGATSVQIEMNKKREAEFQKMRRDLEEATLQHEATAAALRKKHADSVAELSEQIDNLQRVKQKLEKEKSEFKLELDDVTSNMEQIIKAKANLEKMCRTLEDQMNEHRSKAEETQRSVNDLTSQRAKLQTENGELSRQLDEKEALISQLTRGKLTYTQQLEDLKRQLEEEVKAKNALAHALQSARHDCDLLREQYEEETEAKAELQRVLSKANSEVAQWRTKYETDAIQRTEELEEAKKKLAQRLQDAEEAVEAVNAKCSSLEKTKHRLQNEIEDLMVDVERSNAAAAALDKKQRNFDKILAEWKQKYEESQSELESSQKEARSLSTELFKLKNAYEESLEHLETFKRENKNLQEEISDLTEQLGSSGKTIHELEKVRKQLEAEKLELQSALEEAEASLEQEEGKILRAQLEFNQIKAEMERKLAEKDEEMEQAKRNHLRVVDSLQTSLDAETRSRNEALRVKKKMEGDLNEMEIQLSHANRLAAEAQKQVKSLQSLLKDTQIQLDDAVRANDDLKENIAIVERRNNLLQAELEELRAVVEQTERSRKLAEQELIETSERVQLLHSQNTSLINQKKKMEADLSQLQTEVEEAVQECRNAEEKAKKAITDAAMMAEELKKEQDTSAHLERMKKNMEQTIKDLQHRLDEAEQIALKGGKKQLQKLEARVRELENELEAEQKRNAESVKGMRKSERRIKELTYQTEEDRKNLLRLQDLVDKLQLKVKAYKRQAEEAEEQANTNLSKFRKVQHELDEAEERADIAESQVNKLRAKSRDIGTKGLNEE
Chain of Bovine cardiac myosin (P85100 whole entry partner): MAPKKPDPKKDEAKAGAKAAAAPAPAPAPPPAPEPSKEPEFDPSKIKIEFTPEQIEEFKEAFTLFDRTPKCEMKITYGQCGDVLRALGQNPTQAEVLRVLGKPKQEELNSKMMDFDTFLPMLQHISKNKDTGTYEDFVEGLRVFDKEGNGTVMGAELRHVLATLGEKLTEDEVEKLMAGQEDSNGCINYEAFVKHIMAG
Chain of Bovine cardiac myosin (Q3SZE5 whole entry partner): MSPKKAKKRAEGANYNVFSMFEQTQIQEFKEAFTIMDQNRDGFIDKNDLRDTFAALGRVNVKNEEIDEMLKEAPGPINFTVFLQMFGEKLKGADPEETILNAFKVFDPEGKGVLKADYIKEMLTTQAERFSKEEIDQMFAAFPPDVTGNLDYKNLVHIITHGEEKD
In short: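 NADH-coupled (PK/LDH) assay at 25° C: 300 nM bovine cardiac myosin, 10 μM rabbit F-actin, 1 mM ATP, 1 mM PEP, 220 μM NADH, MOPS pH 7.0, 0.5% DMSO. NADH fluorescence was followed for 30 min; Ki values came from 16-point triplicate data (top 50 uM) fitted to a quadratic one-to-one binding model.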

BLC spine density = BLC spine density associated with memory; settings: in vivo
From the text: as §1, §2

METH seeking = test: Context-induced reinstatement of METH seeking (animal model of relapse); format: in vivo; settings: single intra-BLC administration
[2] = system: hiPS cardiomyocytes (Cor.4U CMs); test: Cardiac safety assay 1: beating parameters of cardiomyocytes (xCELLigence RTCA Cardio); format: cell-based, human; settings: hiPS-derived cardiomyocytes
Experimental: The spontaneous contractions of cardiomyocytes (CMs) is measured label-free in real time using the ACEA xCELLigence RTCA Cardio instrument. All measurements are performed at 37° C. in a cell culture incubator, allowing for spontaneous beating of CMs at physiological conditions. Cor.4U CMs are seeded at 3×10^4 cells/well in 180 μl/well maintenance medium. Prior to seeding, a background impedance measurement (plate plus medium) is performed. The contraction of CMs involves cyclic modulation of cell morphology and adhesion inducing a delta change in impedance. From the cyclic changes in impedance a beating frequency, amplitude and effects on beating pattern can be calculated. Time point “0” (baseline) is recorded 10× for 20 seconds at 1 minute intervals. Thereafter, compounds and control (0.1% DMSO) are added to the wells and effects are measured 30 minutes later. Vehicle control is 0.1% DMSO and positive control is 100 nM isoproterenol. Compounds are tested at 0.1, 0.3, 1.0 and 3.0 uM. Data is collected at 5, 10, 15, 20 and 30 minutes, and 1, 4, 6, 12 and 24 hours post-incubation.

[3] = Solubility (quoted in the Table 2 note); format: physicochemical

For Cc1ccc2c(c1)C(=O)[C@]1(O)CCN(c3ccccc3)C1=N2 [Blebbistatin, reference compound], the “METH/MOR CPP” value [1] was “did not demonstrate a significant METH/MOR CPP during either test”, the “METH/NIC CPP” value [1] was “did not demonstrate a significant METH/NIC CPP during either test” and the “effect on a fear memory” value (fear memory) was “no similarly immediate effect on a fear memory”. For the same molecule, the Ki (Bovine cardiac myosin; 300 nM cardiac myosin, 10 μM actin, 25° C., read-out: CMMII KI) was 1500 nM, the “CMMII/NMII Ratio” value (Bovine cardiac myosin; cardiac Ki relative to NMII EC50) was 0.56 and the Ki (Bovine cardiac myosin; cardiac muscle myosin II, read-out: CMMII Ki) was 670 nM. The “Ratio CMMII:NMII Ki/EC50” value (Bovine cardiac myosin; cardiac myosin II Ki over nonmuscle myosin II EC50) was 0.789 and 0.8, the “BLC spine density increase accompanying a METH-associated memory” value (BLC spine density) was “reversed” and the “context-induced reinstatement of METH seeking” value (METH seeking) was “prevents context-induced reinstatement of METH seeking”. For the same molecule, the “Qualitative impact on contractility (e.g. Full = Complete inhibition of contraction)” value ([2]; 0.1 uM) was “No”, the “Qualitative impact on contractility (e.g. Full = Complete inhibition of contraction)” value ([2]; 0.3 uM) was “Partial” and the “Qualitative impact on contractility (e.g. Full = Complete inhibition of contraction)” value ([2]; 1.0 uM) was 1.0u M: Full 3.0 uM: Full. The “Change in amplitude at 1 uM @ 15 min” value ([2]; 1 uM, 15 min) was −57.9 ± 12.8%, the “Qualitative impact on contractility (e.g. Full = Complete inhibition of contraction)” value ([2]; 3.0 uM) was 1.0u M: Full 3.0 uM: Full and the solubility [3] was 9.3 µM (≈ 2.72 µg/mL).
